{"source": "patent US9655891B1", "about": "“Use of isoquinoline derivatives for diabetic wound healing” (ZIH YUAN TANG Biotechnology Co., Ltd, priority 2016, dated 2017)", "key": {"[1]": {"system": "AMP-dependent protein kinase (AMPK)", "conditions": "disclosed in U.S. patent application Ser. No. 14/492,547; cited from earlier work"}, "[2]": {"system": "wounds of STZ induced diabetic rats", "assay": "Excisional full-thickness skin wound healing in STZ induced diabetic rats (recovery rate)", "type": "in vivo, Wistar rats", "protocol": "Salsolinol ointments at 0.01 mg/g, 0.03 mg/g, 0.1 mg/g, and 0.3 mg/g were prepared respectively by dissolving 0.5 mg, 1.5 mg, 5 mg, and 15 mg of salsoinol in 2.5 mL of glycerol (Sigma Inc., MO, USA) plus 1.0 mL of Creagel emulsifier (First Chemical, TPE, Taiwan) and 45.5 mL of distilled water. Vehicle was composed of glycerol (2.5 mL), Creagel emulsifier (1.0 mL), and distilled water (45.5 mL).\nSwivazin®-HN cream was used as positive control for treating the wounds of STZ induced diabetic rats, which contained asiaticoside (4 mg/g), isolated from Centella asiatica. […]. Ethnopharmacology 65 (1999): 1-11].\nAdult male Wistar rats were used at four weeks of age, purchased from BioLASCO Taiwan, and were acclimatized in a room with 12-12 h light (7:00 A.M. to 7:00 P.M.)-dark (7:00 P.M. to 7:00 A.M.) cycle, a temperature of 23±1° C., and a humidity of 65±5%.\nEach rat had free access to both water and standard rodent soft chow ad libitum. STZ was injected intraperitoneally at a dose of 65 mg/Kg body weight.\nAll experimental procedures were approved by and performed in compliance with the guidelines of the Institutional Animal Care and Use Committee (IACUC). All surgeries were conducted while animals were under continuous anesthesia with 4% isoflurane.\nThe dorsal skin was shaved and then disinfected with 10% povidone-iodine before an excisional full-thickness square-shaped skin wound (1.5×1.5 cm) was induced using a sterile wound maker. Animal was then housed alone in its cage to avoid any further wound damage.\n. The groups were administered at the same amount once daily and the wounds were photopictured on Day 1, Day 3, Day 5, Day 7, Day 10, and Day 15 and the sizes of the wounds were analyzed using Visual Basic 6.0. Wound closure at experimental time points was calculated as percentage of initial wound area, called as “recovery rate.”"}}, "data": [{"smiles": "COc1ccc(C[C@H]2c3cc(O)c(OC)cc3CCN2C)cc1O", "note": "[reticuline, reference compound]", "values": [{"measurement": "activation of AMPK", "setting": "[1]", "result": "can activate AMP-dependent protein kinase (AMPK)"}]}, {"smiles": "CC1NCCc2cc(O)c(O)cc21", "note": "(stereo not shown) [salsolinol]", "values": [{"measurement": "activation of AMPK", "setting": "[1]", "result": "can activate AMP-dependent protein kinase (AMPK)"}, {"measurement": "recovery rate (in words)", "setting": "[2]; FIG. 2, salsolinol 0.01 mg/g, Day 7-15", "result": "relatively improved recovery rate"}, {"measurement": "wound closure and healing", "setting": "[2]; FIG. 2, salsolinol at all the concentrations (0.01, 0.03, 0.1, 0.3 mg/g)", "result": "could enhance the wound closure and healing"}, {"measurement": "recovery rate (wound closure as percentage of initial wound area)", "setting": "[2]; FIG. 2, salsolinol ointment 0.01 mg/g once daily, topical, Day 15", "result": "over 97%"}, {"measurement": "difference in recovery between D+Salsolinol and Swivazin (DP, positive control)", "setting": "[2]; FIG. 3", "result": "no obvious difference"}, {"measurement": "recovery rate compared with groups without treatment (DC) or vehicle (DV)", "setting": "[2]; FIG. 3, D+Salsolinol", "result": "significantly increased recovery rate"}]}]}
